Source: US12070458B2, “Therapeutic agent composition and method of use, for treatment of mild congnitive impairment, depression, and psychological disorders” (priority 2018, dated 2024)
Residues, ends and D or L forms follow the SMILES beside them.

Experiments:
[1] = tested on: damaged nerve tissue (crushed spinal cord); assay: Regeneration of damaged nerve tissue after crushing the spinal cord; assay type: in vivo, Wistar rats; conditions: 10 mM in saline, 0.75 ml four times a day at the site of injury for 14 days, versus saline
Method: Postnatal day 4 Wistar 10 rats were used for the study. The rats were divided in 2 groups: one group of 5 animals treated with drug solution, and the other group of animals treated with 0.9% sodium chloride (saline) solution. A drug solution containing cPG (from Bachem, 10 mM solution prepared in 0.9% sodium chloride (saline) solution) was administered four times a day in volumes of 0.75 ml to thoroughly flood the site of injury.
Two days after crushing the spinal cord, the dura of a rat was opened and a polyethylene tube was sutured to the vertebral spines and adjacent soft tissues so that the opening in one end lay directly over the injured part of the spinal cord. The tubing was brought through a subcutaneous tunnel so that its other end emerged at the base of the skull. A syringe adapter was attached to the external opening for injecting the drugs. All experiments were on a double-blind basis on 2 groups: one group of 5 animals treated with drug solution of 10 mM in saline solution, and the other group of 5 animals treated with 0.9% sodium chloride (saline) solution. Treatment of every animal was continued for 14 days, after which the animals were killed and histological sections prepared.
Postnatal day 4 Wistar 10 rats were used for the study. […]

[2] = tested on: BrdU positive cells in sub ventricular zone and dentate gyrus; assay: Neurogenesis by BrdU co-administration (sub ventricular zone, dentate gyrus); assay type: in vivo, Wistar rats; conditions: 10 mg/kg i.p. in 0.1% RSA twice daily for 7 days, compared to sham injected
Method: Male Wistar rats weighing about 250-270 g (not newborn) were used. All animal experiments were conducted in agreement with national and international guidelines. Care was taken to minimize suffering for the animals. Animals were allowed to acclimatize for 1 week before start of the studies. Animals were housed under standardized conditions with normal tight-dark periods and in groups of five animals per cage. Animals had access to food and water ad libitum during the studies.
Three neurogenesis modulating agents, cPG, c(PG)3 and cGMeP were separately administered intraperitoneally to Male Wistar rats (N=10) at 10 mg/kg in Rat Serum Albumin (RSA). The negative control (n=12), the vehicle group was injected with saline (in 0.1% RSA). Bromodeoxyuridine (Brd1J; 50 mg/kg) was co-administrated together with the compounds. The intraperitoneally injections were given with a 12 hour interval for 7 days. Animals were perfused on day 8. The rats were kept at 12 hours light/dark regime. In perfusion, animals were perfused transcranially with 50 ml of ice cold phosphate buffered saline (PBS) and then 100 ml of 4% paraformaldehyde in PBS. Brains were fixed after removal in 4% paraformaldehyde in PBS for 24 hours at 4° C. at least 3 days before sectioning. The procedures of transcranial infusion consist the following steps: […]

SMILES | nerve growth into the lesion site (histology) [1] | number of newborn cells (BrdU positive) in sub ventricular zone and dentate gyrus [2]
O=C1NCC(=O)N2CCC[C@@H]12 [cPG, cyclic Prolyl Glycine] | most prolific nerve growth | significant increase
O=C1NCC(=O)N2CCC[C@H]2C(=O)NCC(=O)N2CCC[C@H]2C(=O)NCC(=O)N2CCCC12 (stereo partly drawn) [c(PG)3, cyclic (glycyl-L-prolylglycyl-L-prolylglycyl-L-prolyl)] (HELM PEPTIDE1{G.P.G.P.G.[O=C(C1CCCN1[*:1])[*:2]]}$PEPTIDE1,PEPTIDE1,1:R1-6:R2$$$V2.0) | prolific nerve growth | significant increase
